molecular target: MAGL (Homo sapiens (Human), UniProt Q99685); assay: In vitro competitive activity-based protein profiling (human prefrontal cortex membrane fractions, FP-Rh probe), MAGL band; conditions: read-out: MAGL IC50 (μM) (human); human prefrontal cortex membrane fractions
Sequence (Q99685 whole entry): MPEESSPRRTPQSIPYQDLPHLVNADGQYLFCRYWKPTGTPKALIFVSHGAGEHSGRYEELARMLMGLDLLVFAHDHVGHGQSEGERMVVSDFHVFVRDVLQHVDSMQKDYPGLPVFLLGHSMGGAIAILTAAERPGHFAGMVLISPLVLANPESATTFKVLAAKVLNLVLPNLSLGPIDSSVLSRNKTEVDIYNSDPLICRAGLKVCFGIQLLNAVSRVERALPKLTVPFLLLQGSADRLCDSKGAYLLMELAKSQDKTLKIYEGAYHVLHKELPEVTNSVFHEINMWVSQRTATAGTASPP

Row | SMILES | IC50 [µM]
1 | Cc1cc(-c2ccccc2)ccc1CN1CCN(C(=O)n2ccc(C(=O)O)n2)C(C)C1 (stereo not drawn) [Example 89, 1-(2-methyl-4-((3-methyl-[1,1′-biphenyl]-4-yl)methyl)-piperazine-1-carbonyl)-1H-pyrazole-3-carboxylic acid] | < 0.1
2 | Cc1c(COC2CCN(C(=O)n3ccc(C(=O)O)n3)CC2)cccc1C(F)(F)F [Example 235, 1-(4-((2-methyl-3-(trifluoromethyl)-benzyl)oxy)-piperidine-1-carbonyl)-1H-pyrazole-3-carboxylic acid] | < 0.1
3 | NC(=O)c1ccn(C(=O)N2CCC3(CCN(Cc4ccc(N5CCOCC5)cc4C(F)(F)F)C3)C2)n1 (stereo not drawn) [Example 436, 1-(7-(4-morpholino-2-(trifluoromethyl)-benzyl)-2,7-diazaspiro-[4.4]nonane-2-carbonyl)-1H-pyrazole-3-carboxamide] | < 0.1
4 | O=C(O)c1nn(C(=O)N2CCN(Cc3cccc(Oc4cc(C(F)(F)F)ccn4)c3)CC2)cc1C(F)(F)F [Example 414, 4-(trifluoromethyl)-1-(4-(3-((4-(trifluoromethyl)-pyridin-2-yl)oxy)benzyl)-piperazine-1-carbonyl)-1H-pyrazole-3-carboxylic acid] | < 0.1
5 | O=C(O)c1ccn(C(=O)N2CCN(Cc3ccc(C(F)(F)F)cc3N3CCCC3)CC2)n1 [Example 83, 1-(4-(2-(pyrrolidin-1-yl)-4-(trifluoromethyl)-benzyl)-piperazine-1-carbonyl)-1H-pyrazole-3-carboxylic acid] | < 0.1
6 | O=C(O)c1ccn(C(=O)N2C[C@H]3C[C@H](Oc4cc(F)cc(Cl)c4)C[C@H]3C2)n1 [Example 222, 1-(trans-5-(3-chloro-5-fluorophenoxy)-octahydrocyclopenta-[c]pyrrole-2-carbonyl)-1H-pyrazole-3-carboxylic acid] | < 0.1
7 | O=C(O)c1nn(C(=O)N2CCN(Cc3ccc(N4CCCC4)cc3C(F)(F)F)CC2)cc1Cl [Example 368, 4-chloro-1-(4-(4-(pyrrolidin-1-yl)-2-(trifluoromethyl)-benzyl)piperazine-1-carbonyl)-1H-pyrazole-3-carboxylic acid] | < 0.1
8 | O=C(O)c1ccn(C(=O)N2CCC3(CCN(Cc4cc(Cl)ccc4OC(F)(F)F)C3)CC2)n1 [Example 371, 1-(2-(5-chloro-2-(trifluoromethoxy)-benzyl)-2,8-diazaspiro[4.5]-decane-8-carbonyl)-1H-pyrazole-3-carboxylic acid] | < 0.1
9 | O=C(O)c1ccn(C(=O)N2C[C@H]3C[C@H](Oc4cccc(-c5nccs5)c4)C[C@H]3C2)n1 [Example 261, 1-(trans-5-(3-(thiazol-2-yl)phenoxy)-octahydrocyclopenta-[c]pyrrole-2-carbonyl)-1H-pyrazole-3-carboxylic acid] | < 0.1
10 | O=C(O)c1ccn(C(=O)N2CCN(Cc3cccc(Oc4cnccc4C(F)(F)F)c3)CC2)n1 [Example 352, 1-(4-(3-((4-(trifluoromethyl)-pyridin-3-yl)oxy)-benzyl)-piperazine-1-carbonyl)-1H-pyrazole-3-carboxylic acid] | < 0.1
11 | C[C@@H]1CN(Cc2ccc(-c3ccccc3)cc2C(F)(F)F)CCN1C(=O)n1ccc(C(=O)O)n1 [Example 351, (R)-1-(2-methyl-4-((3-(trifluoromethyl)-[1,1′-biphenyl]-4-yl)methyl)-piperazine-1-carbonyl)-1H-pyrazole-3-carboxylic acid] | < 0.1
12 | O=C(O)c1nn(C(=O)N2CCC3(CC2)CN(Cc2cc(Cl)ccc2C(F)(F)F)C3)cc1Cl [Example 134, 4-chloro-1-(2-(5-chloro-2-(trifluoromethyl)-benzyl)-2,7-diazaspiro[3.5]-nonane-7-carbonyl)-1H-pyrazole-3-carboxylic acid] | < 0.1
13 | O=C(O)c1nn(C(=O)N2CCC3(CCN(Cc4cccc(Cl)c4C(F)(F)F)C3)CC2)cc1Cl [Example 26, 4-Chloro-1-(2-(3-chloro-2-(trifluoromethyl)benzyl)-2,8-diazaspiro[4.5]decane-8-carbonyl)-1H-pyrazole-3-carboxylic Acid] | < 0.1
14 | O=C(O)c1ccn(C(=O)N2C[C@H]3C[C@H](Oc4cccc(C5CCCC5)c4)C[C@H]3C2)n1 [Example 232, 1-(trans-5-(3-cyclopentyl-phenoxy)-octahydrocyclopenta-[c]pyrrole-2-carbonyl)-1H-pyrazole-3-carboxylic acid] | < 0.1
15 | O=C(O)c1ccn(C(=O)N2C[C@H]3C[C@H](Oc4cccc(N5CCCC5)c4)C[C@H]3C2)n1 [Example 234, 1-(trans-5-(3-(pyrrolidin-1-yl)phenoxy)-octahydrocyclopenta-[c]pyrrole-2-cathonyl)-1H-pyrazole-3-carboxylic acid] | < 0.1
16 | CNC(=O)c1ccn(C(=O)N2CCC3(CCN(Cc4cc(Cl)ccc4Cl)C3)C2)n1 (stereo not drawn) [Example 428, 1-(7-(2,5-dichlorobenzyl)-2,7-diazaspiro[4.4]-nonane-2-carbonyl)-N-methyl-1H-pyrazole-3-carboxamide] | < 0.1
17 | O=C(O)c1ccn(C(=O)N2CCN(Cc3cccc(Oc4ccc(F)cc4)c3)CC2)n1 [Example 51, 1-(4-(3-(4-fluorophenoxy)-benzyl)piperazine-1-carbonyl)-1H-pyrazole-3-carboxylic acid] | < 0.1

Row | SMILES | IC50 [µM]
18 | O=C(O)c1ccn(C(=O)N2CCC3(CCN(Cc4cccc(-c5ccccc5)c4Cl)C3)CC2)n1 [Example 358, 1-(2-((2-chloro-[1,1′-biphenyl]-3-yl)methyl)-2,8-diazaspiro[4.5]-decane-8-carbonyl)-1H-pyrazole-3-carboxylic acid] | < 0.1
19 | O=C(O)c1ccn(C(=O)N2CCC3(CCN(Cc4ccc(-c5ccccc5)cc4C(F)(F)F)C3)CC2)n1 [Example 170, 1-(2-((3-(trifluoromethyl)-[1,1′-biphenyl]-4-yl)methyl)-2,8-diazaspiro[4.5]-decane-8-carbonyl)-1H-pyrazole-3-carboxylic acid] | < 0.1
20 | Cc1cn(C(=O)N2CCC3(CCN(Cc4cc(Cl)ccc4C(F)(F)F)C3)CC2)nc1C(=O)O [Example 130, 1-(2-(5-chloro-2-(trifluoromethyl)-benzyl)-2,8-diazaspiro[4.5]-decane-8-carbonyl)-4-methyl-1H-pyrazole-3-carboxylic acid] | < 0.1
21 | O=C(O)c1ccn(C(=O)N2CCN(Cc3cccc(C(F)(F)F)c3N3CCOCC3)CC2)n1 [Example 453, 1-(4-(2-morpholino-3-(trifluoromethyl)-benzyl)-piperazine-1-carbonyl)-1H-pyrazole-3-carboxylic acid] | < 0.1
22 | NC(=O)c1ccn(C(=O)N2CCC3(CCN(Cc4cccc(C(F)(F)F)c4)C3)CC2)n1 [Example 284, 1-(2-(3-(trifluoromethyl)-benzyl)-2,8-diazaspiro[4.5]-decane-8-carbonyl)-1H-pyrazole-3-carboxamide] | < 0.1
23 | O=C(O)c1ccn(C(=O)N2CCN(Cc3cccc(Oc4ccc(F)cn4)c3)CC2)n1 [Example 266, 1-(4-(3-((5-fluoropyridin-2-yl)oxy)benzyl)-piperazine-1-carbonyl)-1H-pyrazole-3-carboxylic acid] | < 0.1
24 | O=C(O)c1ccn(C(=O)N2C[C@H]3C[C@H](Oc4ccc(Cl)c(-c5nccs5)c4)C[C@H]3C2)n1 [Example 318, 1-(trans-5-(4-chloro-3-(thiazol-2-yl)phenoxy)-octahydrocyclopenta-[c]pyrrole-2-carbonyl)-1H-pyrazole-3-carboxylic acid] | < 0.1
25 | C[C@@H]1C[C@H](N(C)Cc2cccc(C(F)(F)F)c2)CCN1C(=O)n1ccc(C(N)=O)n1 [Example 257, 1-((2R,4R)-2-methyl-4-(methyl(3-(trifluoromethyl)-benzyl)amino)-piperidine-1-carbonyl)-1H-pyrazole-3-carboxamide] | < 0.1
26 | O=C(O)c1ccn(C(=O)N2CCC3(CCN(Cc4cc(Cl)cc(Cl)c4Cl)C3)CC2)n1 [Example 337, 1-(2-(2,3,5-trichlorobenzyl)-2,8-diazaspiro[4.5]-decane-8-carbonyl)-1H-pyrazole-3-carboxylic acid] | < 0.1
27 | O=C(O)c1ccn(C(=O)N2CCC3(CCN(Cc4cccc(Cl)c4Cl)C3)CC2)n1 [Example 286, 1-(2-(2,3-dichlorobenzyl)-2,8-diazaspiro[4.5]-decane-8-carbonyl)-1H-pyrazole-3-carboxylic acid] | < 0.1
28 | CN(Cc1cc(Cl)ccc1C(F)(F)F)C1CCN(C(=O)n2ccc(C(=O)O)n2)CC1 [Example 81, 1-(4-((5-chloro-2-(trifluoromethyl)-benzyl)-(methyl)amino)-piperidine-1-carbonyl)-1H-pyrazole-3-carboxylic acid] | < 0.1
29 | CNC(=O)c1ccn(C(=O)N2CC3CN(Cc4cc(Cl)cc(C(F)(F)F)c4)CC3C2)n1 (stereo not drawn) [Example 437, 1-(5-(3-chloro-5-(trifluoromethyl)-benzyl)-octahydropyrrolo-[3,4-c]pyrrole-2-carbonyl)-N-methyl-1H-pyrazole-3-carboxamide] | < 0.1
30 | CNC(=O)c1ccn(C(=O)N2CCC3(CCN(Cc4cc(Cl)cc(C(F)(F)F)c4)C3)C2)n1 (stereo not drawn) [Example 435, 1-(7-(3-chloro-5-(trifluoromethyl)-benzyl)-2,7-diazaspiro[4.4]-nonane-2-carbonyl)-N-methyl-1H-pyrazole-3-carboxamide] | < 0.1
31 | O=C(O)c1ccn(C(=O)N2CCC3(CCN(Cc4cc(Cl)cc(Cl)c4)C3)CC2)n1 [Example 162, 1-(2-(3,5-dichlorobenzyl)-2,8-diazaspiro[4.5]-decane-8-carbonyl)-1H-pyrazole-3-carboxylic acid] | < 0.1
32 | Cc1ccc(Oc2cccc(CN3CCN(C(=O)n4ccc(C(=O)O)n4)CC3)c2)cc1 [Example 251, 1-(4-(3-(p-tolyloxy)benzyl)-piperazine-1-carbonyl)-1H-pyrazole-3-carboxylic acid] | < 0.1
33 | O=C(O)c1ccn(C(=O)N2CCN(Cc3cc(Cl)cc(Oc4ccc(Cl)cc4)c3)CC2)n1 [Example 19, 1-(4-(3-Chloro-5-(4-chlorophenoxy)benzyl)piperazine-1-carbonyl)-1H-pyrazole-3-carboxylic Acid] | < 0.1

Reference: patent US10927105B1 (Lundbeck La Jolla Research Center, Inc., priority 2017, dated 2021)
